From PubChem BioAssay (NCI)
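GI50: concentration for 50% inhibition of growth. TGI: total growth inhibition.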

Legend:
Assay in all cases: NCI tumour cell line growth inhibition, 384-well format
[1] = test system: OVCAR-8 ovarian
[2] = test system: PC-3 prostate
[3] = test system: KM12 colon
[4] = test system: T-47D breast
[5] = test system: M14 melanoma
[6] = test system: BT-549 breast
[7] = test system: MCF7 breast
[8] = test system: HOP-92 NSCLC
[9] = test system: NCI-H23 lung
[10] = test system: NCI-H226 lung
[11] = test system: HCC-2998 colon
[12] = test system: SF-539 CNS
[13] = test system: MALME-3M melanoma
[14] = test system: SNB-75 CNS
[15] = test system: A549 NSCLC
[16] = test system: TK-10 renal
[17] = test system: SW-620 colon
[18] = test system: OVCAR-3 ovarian
[19] = test system: UO-31 renal
[20] = test system: MDA-MB-435 melanoma
[21] = test system: HL-60(TB) leukemia
[22] = test system: RXF 393 renal
[23] = test system: SR leukemia
[24] = test system: SK-OV-3 ovarian
[25] = test system: HCT-15 colon
[26] = test system: HT29 colon
[27] = test system: SK-MEL-28 melanoma
[28] = test system: K-562 leukemia
[29] = test system: UACC-62 melanoma
[30] = test system: 786-0 renal
[31] = test system: SN12C renal
[32] = test system: MDA-MB-231 breast
[33] = test system: NCI-H460 NSCLC
[34] = test system: NCI-H322M lung
[35] = test system: SNB-19 CNS
[36] = test system: OVCAR-4 ovarian
[37] = test system: DU-145 prostate
[38] = test system: CAKI-1 renal
[39] = test system: UACC-257 melanoma
[40] = test system: LOX IMVI melanoma
[41] = test system: SK-MEL-5 melanoma
[42] = test system: MOLT-4 leukemia
[43] = test system: A498 renal
[44] = test system: HS 578T breast
[45] = test system: NCI-H522 lung
[46] = test system: SF-295 CNS
[47] = test system: OVCAR-5 ovarian
[48] = test system: ACHN renal
[49] = test system: EKVX NSCLC
[50] = test system: CCRF-CEM leukemia
[51] = test system: COLO 205 colon
[52] = test system: RPMI-8226 leukemia
[53] = test system: NCI/ADR-RES ovarian
[54] = test system: HOP-62 NSCLC
[55] = test system: SF-268 CNS
[56] = test system: MDA-MB-468 breast
[57] = test system: IGROV1 ovarian

## Cc1c(C#N)cccc1[C@@H](C)Nc1nnc(C)c2cnc(N3CCOCC3)cc12
[1]
  GI50: 15 µM
  TGI: 29 µM
[2]
  GI50: 17 µM
  TGI: 32.3 µM
[3]
  GI50: 4.85 µM
  TGI: 22.2 µM
[4]
  GI50: 11.3 µM
  TGI: 24.6 µM
[5]
  GI50: 17.2 µM
  TGI: 31.1 µM
[6]
  GI50: 14.1 µM
  TGI: 27.4 µM
[7]
  GI50: 15.8 µM
  TGI: 35.5 µM
[8]
  GI50: 0.0569 µM
  TGI: 14.3 µM
[9]
  GI50: 10.6 µM
  TGI: 23.2 µM
[10]
  GI50: 12.7 µM
  TGI: 26.5 µM
[11]
  GI50: 18.3 µM
  TGI: 33.3 µM
[12]
  GI50: 15.9 µM
  TGI: 29.3 µM
[13]
  GI50: 16.6 µM
  TGI: 30.6 µM
[14]
  GI50: 16.3 µM
  TGI: 33.3 µM
[15]
  GI50: 16.7 µM
  TGI: 36.3 µM
[16]
  GI50: 15.2 µM
  TGI: 38.9 µM
[17]
  GI50: 12.6 µM
  TGI: 25.4 µM
[18]
  GI50: 13.4 µM
  TGI: 26.4 µM
[19]
  GI50: 13.3 µM
  TGI: 26.8 µM
[20]
  GI50: 18.2 µM
  TGI: 32.4 µM
[21]
  GI50: 21.8 µM
  TGI: 36.2 µM
[22]
  GI50: 12 µM
  TGI: 24.6 µM
[23]
  GI50: 0.749 µM
  TGI: 18.1 µM
[24]
  GI50: 16.7 µM
  TGI: 30.7 µM
[25]
  GI50: 16.1 µM
  TGI: 29.9 µM
[26]
  GI50: 15.7 µM
  TGI: 30 µM
[27]
  GI50: 15.4 µM
  TGI: 29.7 µM
[28]
  GI50: 0.163 µM
  TGI: 15 µM
[29]
  GI50: 16.6 µM
  TGI: 30.3 µM
[30]
  GI50: 13.1 µM
  TGI: 26.5 µM
[31]
  GI50: 1.65 µM
  TGI: 19.9 µM
[32]
  GI50: 14.3 µM
  TGI: 29.3 µM
[33]
  GI50: 17.5 µM
  TGI: 32.2 µM
[34]
  GI50: 11.8 µM
  TGI: 26.6 µM
[35]
  GI50: 14.3 µM
  TGI: 37.5 µM
[36]
  GI50: 8.18 µM
  TGI: 22 µM
[37]
  GI50: 18.5 µM
  TGI: 37.6 µM
[38]
  GI50: 10.5 µM
  TGI: 23 µM
[39]
  GI50: 19.5 µM
  TGI: 33.9 µM
[40]
  GI50: 14 µM
  TGI: 27.1 µM
[41]
  GI50: 11 µM
  TGI: 23 µM
[42]
  GI50: 12.8 µM
  TGI: 25.5 µM
[43]
  GI50: 12.1 µM
  TGI: 24.6 µM
[44]
  GI50: 13.8 µM
  TGI: 26.9 µM
[45]
  GI50: 11.5 µM
  TGI: 24 µM
[46]
  GI50: 14.7 µM
  TGI: 28 µM
[47]
  GI50: 19.1 µM
  TGI: 38.9 µM
[48]
  GI50: 14.5 µM
  TGI: 31.6 µM
[49]
  GI50: 11.7 µM
  TGI: 26.8 µM
[50]
  GI50: 19.5 µM
  TGI: 33.7 µM
[51]
  GI50: 16.5 µM
  TGI: 30.5 µM
[52]
  GI50: 11.2 µM
  TGI: 23.3 µM
[53]
  GI50: 16.6 µM
  TGI: 32.1 µM
[54]
  GI50: 14.2 µM
  TGI: 27.9 µM
[55]
  GI50: 16 µM
  TGI: 30.8 µM
[56]
  GI50: 0.39 µM
  TGI: 6.37 µM
[57]
  GI50: 15.5 µM
  TGI: 31.4 µM
